According to PMC10176470, “Engaging a Non-catalytic Cysteine Residue Drives Potent and Selective Inhibition of Caspase-6” (Journal of the American Chemical Society, 2023):

Assays:
Assay in all cases: SILAC proteomics / in-gel fluorescence, competition of probe 13-t labeling by 3a
[1] = target: proteins of HEK293T cells transiently overexpressing caspase-6 (Homo sapiens, UniProt P07814); settings: Comp; protein EPRS P07814
[2] = target: T1, proteins of HEK293T cells transiently overexpressing caspase-6 (Homo sapiens, UniProt P12236)
T1 sequence (P12236 1-298): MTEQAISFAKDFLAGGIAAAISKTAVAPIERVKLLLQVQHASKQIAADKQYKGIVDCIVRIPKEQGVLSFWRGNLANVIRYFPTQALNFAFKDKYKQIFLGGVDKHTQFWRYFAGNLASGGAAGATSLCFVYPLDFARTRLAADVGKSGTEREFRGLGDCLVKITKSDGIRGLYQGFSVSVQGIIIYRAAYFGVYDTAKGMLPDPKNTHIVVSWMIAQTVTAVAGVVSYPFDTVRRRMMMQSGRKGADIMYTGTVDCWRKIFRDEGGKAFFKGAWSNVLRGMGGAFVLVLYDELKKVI

[3] = target: proteins of HEK293T cells transiently overexpressing caspase-6 (Homo sapiens, UniProt P14868); settings: Comp; protein DARS P14868
[4] = target: proteins of HEK293T cells transiently overexpressing caspase-6 (Homo sapiens, UniProt P31943); settings: Comp; protein HNRNPH1 P31943
[5] = target: proteins of HEK293T cells transiently overexpressing caspase-6 (Homo sapiens, UniProt P35606); settings: Comp; protein COPB2 P35606
[6] = target: proteins of HEK293T cells transiently overexpressing caspase-6 (Homo sapiens, UniProt P36578); settings: Comp; protein RPL4 P36578
[7] = target: proteins of HEK293T cells transiently overexpressing caspase-6 (Homo sapiens, UniProt P39023); settings: Comp; protein RPL3 P39023
[8] = target: proteins of HEK293T cells transiently overexpressing caspase-6 (Homo sapiens, UniProt P40938); settings: Comp; protein RFC3 P40938
[9] = target: proteins of HEK293T cells transiently overexpressing caspase-6 (Homo sapiens, UniProt P42704); settings: Comp; protein LRPPRC P42704
[10] = target: proteins of HEK293T cells transiently overexpressing caspase-6 (Homo sapiens, UniProt P46782); settings: Comp; protein RPS5 P46782
[11] = target: proteins of HEK293T cells transiently overexpressing caspase-6 (Homo sapiens, UniProt P54886); settings: Comp; protein ALDH18A1 P54886
[12] = target: proteins of HEK293T cells transiently overexpressing caspase-6 (Homo sapiens, UniProt P61247); settings: Comp; protein RPS3A P61247
[13] = target: proteins of HEK293T cells transiently overexpressing caspase-6 (Homo sapiens, UniProt P62826); settings: Comp; protein RAN P62826
[14] = target: proteins of HEK293T cells transiently overexpressing caspase-6 (Homo sapiens, UniProt Q04637); settings: Comp; protein EIF4G1 Q04637
[15] = target: proteins of HEK293T cells transiently overexpressing caspase-6 (Homo sapiens, UniProt Q12905); settings: Comp; protein ILF2 Q12905
[16] = target: T2, proteins of HEK293T cells transiently overexpressing caspase-6 (Homo sapiens, UniProt Q99832); settings: Comp; protein CCT7 Q99832
T2 sequence (Q99832 1-543): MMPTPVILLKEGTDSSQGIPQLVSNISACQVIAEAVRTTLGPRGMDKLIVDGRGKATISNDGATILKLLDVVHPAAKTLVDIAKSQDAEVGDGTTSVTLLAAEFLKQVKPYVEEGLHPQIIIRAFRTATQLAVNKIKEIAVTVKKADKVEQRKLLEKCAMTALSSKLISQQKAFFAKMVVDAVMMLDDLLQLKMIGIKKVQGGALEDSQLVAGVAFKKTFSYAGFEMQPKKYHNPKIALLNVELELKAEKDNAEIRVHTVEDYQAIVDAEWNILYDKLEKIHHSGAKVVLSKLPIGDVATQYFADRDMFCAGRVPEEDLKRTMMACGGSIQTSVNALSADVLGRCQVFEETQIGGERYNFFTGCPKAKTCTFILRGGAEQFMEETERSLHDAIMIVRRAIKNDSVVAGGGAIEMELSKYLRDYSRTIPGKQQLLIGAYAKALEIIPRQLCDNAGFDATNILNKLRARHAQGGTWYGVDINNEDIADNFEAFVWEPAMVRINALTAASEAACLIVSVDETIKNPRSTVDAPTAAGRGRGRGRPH

[17] = protein SLC25A6 (P12236), Exp Comp, analysis C6, p 0.5000, 2 peptides

Chain of proteins of HEK293T cells transiently overexpressing caspase-6 (Homo sapiens, UniProt Q12905) (Q12905 whole entry): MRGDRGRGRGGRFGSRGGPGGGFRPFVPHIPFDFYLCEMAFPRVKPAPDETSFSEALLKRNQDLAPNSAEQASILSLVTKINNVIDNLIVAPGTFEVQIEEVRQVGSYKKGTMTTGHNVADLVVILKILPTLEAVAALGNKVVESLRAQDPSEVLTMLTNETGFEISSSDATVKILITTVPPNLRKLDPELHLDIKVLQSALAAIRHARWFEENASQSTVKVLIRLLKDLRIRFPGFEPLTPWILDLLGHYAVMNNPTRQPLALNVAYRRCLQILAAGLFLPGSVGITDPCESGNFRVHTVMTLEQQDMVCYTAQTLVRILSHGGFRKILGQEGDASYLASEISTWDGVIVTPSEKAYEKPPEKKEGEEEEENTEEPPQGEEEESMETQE
Chain of proteins of HEK293T cells transiently overexpressing caspase-6 (Homo sapiens, UniProt P14868) (P14868 whole entry): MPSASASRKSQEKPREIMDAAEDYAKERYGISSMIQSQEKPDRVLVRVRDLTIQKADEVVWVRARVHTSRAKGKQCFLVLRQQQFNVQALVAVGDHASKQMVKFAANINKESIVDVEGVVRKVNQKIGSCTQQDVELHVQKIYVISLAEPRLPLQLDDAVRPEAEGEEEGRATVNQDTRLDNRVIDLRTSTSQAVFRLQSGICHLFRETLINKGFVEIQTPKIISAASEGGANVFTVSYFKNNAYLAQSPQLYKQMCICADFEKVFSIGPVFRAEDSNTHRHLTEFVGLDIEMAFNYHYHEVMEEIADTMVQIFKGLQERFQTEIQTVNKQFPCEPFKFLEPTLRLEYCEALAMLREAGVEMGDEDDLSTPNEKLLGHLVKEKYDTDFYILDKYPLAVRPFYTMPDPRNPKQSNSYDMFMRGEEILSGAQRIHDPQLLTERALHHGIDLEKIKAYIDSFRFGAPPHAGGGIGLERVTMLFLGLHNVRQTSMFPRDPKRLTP
Chain of proteins of HEK293T cells transiently overexpressing caspase-6 (Homo sapiens, UniProt P40938) (P40938 whole entry): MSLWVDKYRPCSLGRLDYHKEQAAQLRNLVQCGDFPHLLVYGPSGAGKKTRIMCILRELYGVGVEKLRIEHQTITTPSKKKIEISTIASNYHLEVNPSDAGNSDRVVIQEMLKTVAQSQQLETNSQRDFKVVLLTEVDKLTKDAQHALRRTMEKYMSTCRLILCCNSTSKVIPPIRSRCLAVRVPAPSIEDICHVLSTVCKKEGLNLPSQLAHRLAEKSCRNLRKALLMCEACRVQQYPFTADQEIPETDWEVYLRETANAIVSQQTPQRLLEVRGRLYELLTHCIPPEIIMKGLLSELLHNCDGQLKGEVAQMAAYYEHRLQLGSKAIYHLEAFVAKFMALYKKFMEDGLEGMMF
Chain of proteins of HEK293T cells transiently overexpressing caspase-6 (Homo sapiens, UniProt P54886) (P54886 whole entry): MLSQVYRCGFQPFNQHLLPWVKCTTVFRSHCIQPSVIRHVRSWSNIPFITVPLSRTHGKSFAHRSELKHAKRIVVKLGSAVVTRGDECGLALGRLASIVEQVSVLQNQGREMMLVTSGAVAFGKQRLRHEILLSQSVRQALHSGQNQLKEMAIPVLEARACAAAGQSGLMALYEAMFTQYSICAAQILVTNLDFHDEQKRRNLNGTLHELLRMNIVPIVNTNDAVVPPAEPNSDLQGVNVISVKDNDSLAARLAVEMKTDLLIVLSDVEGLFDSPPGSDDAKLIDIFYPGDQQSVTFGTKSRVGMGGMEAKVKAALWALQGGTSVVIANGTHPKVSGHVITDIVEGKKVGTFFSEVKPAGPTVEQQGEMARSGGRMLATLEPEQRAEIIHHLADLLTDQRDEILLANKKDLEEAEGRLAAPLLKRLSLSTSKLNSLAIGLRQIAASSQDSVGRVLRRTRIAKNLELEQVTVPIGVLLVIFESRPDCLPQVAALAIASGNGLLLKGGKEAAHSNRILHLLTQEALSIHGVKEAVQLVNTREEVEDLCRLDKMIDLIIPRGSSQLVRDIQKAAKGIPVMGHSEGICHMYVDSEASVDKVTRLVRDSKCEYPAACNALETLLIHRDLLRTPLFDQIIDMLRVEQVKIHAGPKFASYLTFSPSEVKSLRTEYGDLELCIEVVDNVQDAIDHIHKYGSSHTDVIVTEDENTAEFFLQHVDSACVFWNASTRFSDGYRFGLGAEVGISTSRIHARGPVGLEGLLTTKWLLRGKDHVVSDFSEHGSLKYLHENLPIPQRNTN
Chain of proteins of HEK293T cells transiently overexpressing caspase-6 (Homo sapiens, UniProt Q04637) (Q04637 whole entry): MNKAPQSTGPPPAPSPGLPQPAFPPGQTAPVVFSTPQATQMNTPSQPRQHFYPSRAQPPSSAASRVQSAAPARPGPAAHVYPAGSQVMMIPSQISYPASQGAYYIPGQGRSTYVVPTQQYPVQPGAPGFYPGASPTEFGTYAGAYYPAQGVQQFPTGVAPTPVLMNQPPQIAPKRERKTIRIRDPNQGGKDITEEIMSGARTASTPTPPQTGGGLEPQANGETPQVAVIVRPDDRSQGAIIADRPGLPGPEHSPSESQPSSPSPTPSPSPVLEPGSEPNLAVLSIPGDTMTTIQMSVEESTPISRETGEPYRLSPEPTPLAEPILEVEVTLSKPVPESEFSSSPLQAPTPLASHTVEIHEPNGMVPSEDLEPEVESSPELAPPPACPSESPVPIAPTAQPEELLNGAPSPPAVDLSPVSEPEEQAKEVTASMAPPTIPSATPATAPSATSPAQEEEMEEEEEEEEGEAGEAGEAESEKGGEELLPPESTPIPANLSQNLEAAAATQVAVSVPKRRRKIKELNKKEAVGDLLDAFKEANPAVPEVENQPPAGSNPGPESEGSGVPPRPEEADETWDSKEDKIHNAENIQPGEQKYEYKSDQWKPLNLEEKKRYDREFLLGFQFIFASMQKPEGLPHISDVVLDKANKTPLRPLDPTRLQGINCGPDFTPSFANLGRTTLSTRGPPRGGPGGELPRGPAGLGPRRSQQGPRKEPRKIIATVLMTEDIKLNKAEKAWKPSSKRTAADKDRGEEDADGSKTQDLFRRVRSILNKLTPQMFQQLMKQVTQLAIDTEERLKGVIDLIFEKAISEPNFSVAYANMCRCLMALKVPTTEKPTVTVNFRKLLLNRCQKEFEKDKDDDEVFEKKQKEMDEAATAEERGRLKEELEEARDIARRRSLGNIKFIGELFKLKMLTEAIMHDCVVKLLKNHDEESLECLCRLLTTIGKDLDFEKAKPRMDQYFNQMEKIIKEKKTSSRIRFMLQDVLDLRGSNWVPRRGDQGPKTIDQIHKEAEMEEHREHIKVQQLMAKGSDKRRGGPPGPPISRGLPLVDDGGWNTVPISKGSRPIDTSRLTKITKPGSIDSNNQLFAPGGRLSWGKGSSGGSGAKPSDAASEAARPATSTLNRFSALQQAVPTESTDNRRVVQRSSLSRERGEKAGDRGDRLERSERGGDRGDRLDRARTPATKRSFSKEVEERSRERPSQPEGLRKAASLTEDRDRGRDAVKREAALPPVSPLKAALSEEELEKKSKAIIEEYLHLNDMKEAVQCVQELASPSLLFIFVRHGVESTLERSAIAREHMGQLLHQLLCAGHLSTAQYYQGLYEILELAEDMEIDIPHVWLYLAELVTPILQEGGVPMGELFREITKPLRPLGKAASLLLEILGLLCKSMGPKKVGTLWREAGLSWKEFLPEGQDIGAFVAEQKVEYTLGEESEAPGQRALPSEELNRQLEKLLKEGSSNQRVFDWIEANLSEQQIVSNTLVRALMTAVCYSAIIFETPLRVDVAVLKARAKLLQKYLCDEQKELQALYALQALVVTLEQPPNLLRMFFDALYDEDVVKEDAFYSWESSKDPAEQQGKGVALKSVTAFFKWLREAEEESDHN
Chain of proteins of HEK293T cells transiently overexpressing caspase-6 (Homo sapiens, UniProt P31943) (P31943 whole entry): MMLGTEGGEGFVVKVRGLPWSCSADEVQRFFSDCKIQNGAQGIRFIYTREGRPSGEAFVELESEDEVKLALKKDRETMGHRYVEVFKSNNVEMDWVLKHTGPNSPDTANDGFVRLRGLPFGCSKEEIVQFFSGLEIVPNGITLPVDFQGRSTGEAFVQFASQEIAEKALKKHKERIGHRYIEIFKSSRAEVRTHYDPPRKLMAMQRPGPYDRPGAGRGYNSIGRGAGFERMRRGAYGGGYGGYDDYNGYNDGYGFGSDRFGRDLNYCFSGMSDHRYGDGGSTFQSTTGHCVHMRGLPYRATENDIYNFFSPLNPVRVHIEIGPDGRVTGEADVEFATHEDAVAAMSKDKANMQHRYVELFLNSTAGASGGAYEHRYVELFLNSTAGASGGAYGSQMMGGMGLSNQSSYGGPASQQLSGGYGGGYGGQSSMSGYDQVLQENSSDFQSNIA
Chain of proteins of HEK293T cells transiently overexpressing caspase-6 (Homo sapiens, UniProt P35606) (P35606 whole entry): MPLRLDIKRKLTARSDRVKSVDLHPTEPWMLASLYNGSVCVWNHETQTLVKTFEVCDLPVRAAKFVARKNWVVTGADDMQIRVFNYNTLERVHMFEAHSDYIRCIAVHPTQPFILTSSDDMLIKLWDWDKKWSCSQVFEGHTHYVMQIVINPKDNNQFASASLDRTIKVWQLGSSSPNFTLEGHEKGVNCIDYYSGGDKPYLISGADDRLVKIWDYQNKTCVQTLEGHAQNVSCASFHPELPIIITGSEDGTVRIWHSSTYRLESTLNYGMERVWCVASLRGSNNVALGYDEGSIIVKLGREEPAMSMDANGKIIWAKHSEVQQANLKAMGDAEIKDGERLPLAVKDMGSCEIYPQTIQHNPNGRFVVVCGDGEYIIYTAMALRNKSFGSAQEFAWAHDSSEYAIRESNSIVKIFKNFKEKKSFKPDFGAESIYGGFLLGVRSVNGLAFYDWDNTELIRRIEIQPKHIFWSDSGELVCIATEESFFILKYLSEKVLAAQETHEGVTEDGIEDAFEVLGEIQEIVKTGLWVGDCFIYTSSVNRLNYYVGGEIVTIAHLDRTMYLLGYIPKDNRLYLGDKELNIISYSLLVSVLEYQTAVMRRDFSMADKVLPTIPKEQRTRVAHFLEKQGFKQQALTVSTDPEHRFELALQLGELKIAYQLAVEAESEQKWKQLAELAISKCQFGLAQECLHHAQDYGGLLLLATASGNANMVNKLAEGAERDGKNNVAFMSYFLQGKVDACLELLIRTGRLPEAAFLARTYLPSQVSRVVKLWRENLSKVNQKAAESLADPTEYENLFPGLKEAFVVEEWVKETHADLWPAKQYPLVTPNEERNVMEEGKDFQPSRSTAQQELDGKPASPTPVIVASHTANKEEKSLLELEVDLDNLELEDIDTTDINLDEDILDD

C=CS(=O)(=O)N1C[C@H](C(=O)Nc2ccc(OC(F)(F)F)cc2)C[C@@H](c2ccccc2)C1 [3a]
enrich.exp.med [1]: 0.7098 | enrich.exp.med ([2]; Comp, protein SLC25A6 P12236): 3.139 | enrich.exp.med.lin [2, 17]: 8.81 | enrich.exp.med.log2 [2, 17]: 3.139 | enrich.exp.med [3]: 0.8565 | enrich.exp.med [4]: 0.7263 | enrich.exp.med [5]: 0.6156 | enrich.exp.med [6]: 0.5872 | enrich.exp.med [7]: 0.8762 | enrich.exp.med [8]: 0.6326 | enrich.exp.med [9]: 0.6677 | enrich.exp.med [10]: 0.6107 | enrich.exp.med [11]: 0.7021 | enrich.exp.med [12]: 0.7684 | enrich.exp.med [13]: 0.6474 | enrich.exp.med [14]: 0.702 | enrich.exp.med [15]: 0.7326 | enrich.exp.med [16]: 0.6137
